Assay in all cases: DTP human tumour cell line panel, 48 h
Assay [1] relates to MALME-3M melanoma.
The subject of assay [2] is SK-OV-3 ovarian.
For assay [3], the system named is SK-MEL-28 melanoma.
Assay [4] concerns NCI-H460 lung.
Assay [5] relates to HT29 colon.
Assay [6] deals with SW-620 colon.
The subject of assay [7] is HOP-92 NSCLC.
For assay [8], the system named is SK-MEL-5 melanoma.
For assay [9], the system named is EKVX NSCLC.
The subject of assay [10] is MDA-MB-435.

The structures appear in SMILES notation.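 Briefly, cells in 96-well plates were exposed to five compound concentrations for 48 h, and endpoints were estimated by linear interpolation. GI50 marks 50% less growth. TGI is the concentration that stops growth completely.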

Turning to `CCn1c(-c2nonc2N)nc2c(C#CC(C)(C)O)ncc(OCC3CCNCC3)c21`, the GI50 is above 25 µM in assay [1]; 10.4 µM in [2]; 10 µM in [3]; 18.2 µM in assay [4]; 10.4 µM in assay [5]; 10.1 µM in assay [6]. Also, the GI50 in assay [7] is above 25 µM; in assay [8], 8.87 µM; in [9], above 25 µM; in [10], 13.7 µM. Also, the TGI in [1], in assay [2], in assay [3], in assay [4], in [5] and in [6] was above 25 µM each time. Besides, the concentration for total growth inhibition (TGI) in assay [7] was above 25 µM; in assay [8] it was above 21.2 µM; in assay [9] it was above 25 µM; in assay [10], above 25 µM.
For the compound `CC[C@@]1(O)C(=O)N(CCN(C)C)Cc2c1cc1n(c2=O)Cc2cc3ccccc3nc2-1`, the GI50 is above 100 µM in [1]; above 100 µM in assay [2]; 34.7 µM in [3]; 1.82 µM in [4]; 24.6 µM in assay [5]; 34.6 µM in [6]. Also, the GI50 was above 25.9 µM in assay [7], above 25.2 µM in [8], above 67.9 µM in assay [9] and above 100 µM in assay [10]. In addition, the TGI was above 100 µM in assay [1]; above 100 µM in assay [2]; above 92.8 µM in [3]; above 83.1 µM in assay [4]; above 100 µM in assay [5]; above 100 µM in assay [6]. The TGI in assay [7] was above 100 µM; in [8], above 56.1 µM; in assay [9] it was above 100 µM; in [10] it was above 100 µM.
Regarding `CO[C@H]1/C=C/C=C/C=C/C[C@H](OC(=O)[C@@H](C)NC(=O)C2CCCCC2)[C@H](C)[C@@H](O)/C(C)=C\CCC2=CC(=O)C=C(NC(=O)C1)C2=O`, the GI50 was 0.113 µM in assay [1]; 0.187 µM in assay [2]; 0.102 µM in [3]; 0.111 µM in [4]; 0.0801 µM in [5]; 0.179 µM in assay [6]. The 50% growth inhibitory concentration (GI50) was 0.162 µM in assay [7], 0.0845 µM in assay [8], 0.174 µM in assay [9] and 0.154 µM in [10]. Besides, the TGI came out at 0.801 µM in assay [1]; 1.83 µM in [2]; 0.49 µM in assay [3]; 1.14 µM in assay [4]; 0.513 µM in assay [5]; 3.63 µM in assay [6]. The TGI worked out at 1.98 µM in assay [7], 0.521 µM in assay [8], 2.25 µM in assay [9] and 0.989 µM in [10].
For `c1ccc(-c2nn(-c3ccccc3)[n+](-c3ccccc3-c3ccccc3)n2)cc1`, the GI50 in assay [1] was 0.248 µM; in assay [2], 1.29 µM; in assay [3] it was 2.3 µM; in [4], 1.04 µM; in [5], 0.673 µM; in assay [6], 1.4 µM. In addition, the GI50 is 0.775 µM in assay [7], 0.409 µM in assay [8], 0.687 µM in [9] and 0.461 µM in assay [10]. Further, the TGI is 1.53 µM in assay [1]; above 29.1 µM in [2]; 27.2 µM in [3]; 8.6 µM in [4]; 18.4 µM in [5]; above 73.1 µM in assay [6]. In addition, the concentration for total growth inhibition (TGI) is 5.48 µM in [7], 2.2 µM in assay [8], above 74.6 µM in assay [9] and 2.82 µM in assay [10].
Consider `Cc1cncc2cccc(S(=O)(=O)N3CCCNC[C@@H]3C)c12`, for which the GI50 in assay [1] is 99.5 µM; in assay [2], 24 µM; in assay [3], above 100 µM; in assay [4], 8.81 µM; in [5], 29.3 µM; in [6] it was 8.06 µM. In addition, the GI50 in assay [7] was 0.108 µM; in [8], above 64.1 µM; in assay [9] it was 47.4 µM; in assay [10] it was above 100 µM. Further, the total growth inhibition concentration (TGI) in assay [1], in [2], in assay [3], in assay [4], in assay [5] and in [6] was above 100 µM throughout. The TGI in [7], in assay [8], in assay [9] and in [10] was above 100 µM each time.
Take `COc1cc(C2CC(c3cc(Cl)c(C)cc3O)=NN2c2ccc(S(N)(=O)=O)cc2)cc(OC)c1OC` (stereo not given): the GI50 was 2.08 µM in assay [1]; 3.71 µM in assay [2]; 3 µM in assay [3]; 2.06 µM in [4]; 1.92 µM in [5]; 3.35 µM in assay [6]. Moreover, the GI50 in assay [7] was 2.14 µM; in assay [8] it was 2.02 µM; in [9], 3.26 µM; in [10], 2.57 µM. Further, the TGI in assay [1] amounted to 4.89 µM; in assay [2] it was 11.4 µM; in [3] it was 7.86 µM; in assay [4] it was 3.87 µM; in [5], 4.28 µM; in assay [6] it was 10.7 µM. Also, the TGI in assay [7] came out at 6.99 µM; in [8], 4.18 µM; in assay [9] it was 43.7 µM; in assay [10] it was 8.47 µM.
With `Clc1ccc2c(NCCNc3nc(Cl)nc4ccccc34)ccnc2c1`, the GI50 is 1.76 µM in assay [1]; 1.82 µM in [2]; 1.78 µM in [3]; 0.536 µM in assay [4]; 0.193 µM in assay [5]; 0.271 µM in [6]. Further, the GI50 in [7] was 1.74 µM; in assay [8], 1.76 µM; in assay [9] it was 1.79 µM; in assay [10] it was 1.47 µM. Besides, the TGI in assay [1] turned out to be 3.47 µM; in assay [2], 3.35 µM; in [3], 3.4 µM; in [4], 1.83 µM; in assay [5], 0.377 µM; in [6], 0.636 µM. In addition, the concentration for total growth inhibition (TGI) in assay [7] was determined as 3.4 µM; in [8] it was 3.22 µM; in [9], 3.56 µM; in assay [10] it was 2.95 µM.
Consider `O=C1c2ccccc2-c2c1c1ccccc1c(=O)n2CCCNCCO`, for which the GI50 is 0.511 µM in assay [1]; 2.1 µM in assay [2]; 1.24 µM in assay [3]; 0.111 µM in assay [4]; 0.33 µM in assay [5]; 0.145 µM in assay [6]. The GI50 was 0.357 µM in [7], 0.198 µM in assay [8], 2.38 µM in [9] and 0.895 µM in assay [10]. Besides, the TGI was 1.93 µM in [1]; 14.4 µM in [2]; 2.95 µM in assay [3]; 1.56 µM in [4]; 6.68 µM in assay [5]; 5.26 µM in [6]. The concentration for total growth inhibition (TGI) worked out at 2.61 µM in [7], 0.877 µM in assay [8], 8.35 µM in assay [9] and 4.92 µM in [10].
On to `Cn1ccnc1C(=O)/C=C/c1ccc(CC(=O)Nc2cc(F)c(F)c(F)c2)cc1`, for which the GI50 in [1] is 3.65 µM; in assay [2] it was 5.59 µM; in [3] it was 3.64 µM; in assay [4] it was 1.49 µM; in [5], 0.861 µM; in assay [6], 1.46 µM. The GI50 in [7] was 2.59 µM; in [8] it was 3.25 µM; in [9], 3.51 µM; in [10], 3.36 µM. Moreover, the TGI in assay [1] was 10.8 µM; in [2], above 25 µM; in [3], 7.69 µM; in assay [4], 11.8 µM; in [5], 12.7 µM; in [6], 8.98 µM. Moreover, the total growth inhibition concentration (TGI) turned out to be 7.44 µM in assay [7], 6.47 µM in assay [8], 7.41 µM in [9] and 10.4 µM in assay [10].
Regarding `O=[N+]([O-])C1(CO)COC2(OC1)c1ccccc1-c1ccccc12`, the concentration for total growth inhibition (TGI) was 73.9 µM in assay [1]; above 100 µM in [2]; above 100 µM in assay [3]; above 100 µM in [4]; above 100 µM in assay [5]; 44.5 µM in [6]. Further, the concentration for total growth inhibition (TGI) in [7] was above 95.7 µM; in assay [8], above 100 µM; in assay [9], above 100 µM; in assay [10] it was above 100 µM.
Consider `Nc1cc2ccncc2c2ccccc12`, for which the GI50 is 15.7 µM in assay [1]; 13.6 µM in [2]; 16.6 µM in [3]; 8.78 µM in assay [4]; 13.2 µM in assay [5]; 5.19 µM in assay [6]. Also, the GI50 in assay [7] is 19.6 µM; in assay [8] it was 15.3 µM; in assay [9], 19.3 µM; in assay [10], 17.2 µM. Moreover, the total growth inhibition concentration (TGI) in [1] was 31.4 µM; in assay [2] it was 87.4 µM; in assay [3], 33.6 µM; in assay [4], 70.6 µM; in [5] it was 43 µM; in assay [6], 89 µM. Besides, the concentration for total growth inhibition (TGI) is 68.9 µM in assay [7], 31.2 µM in [8], above 100 µM in [9] and 60 µM in assay [10].
As to `C=C(C)[C@@H]1CC[C@@H]2C(=CC[C@]3(C)C([C@H](C)CC/C=C(/C)C(=O)O)CC[C@@]23C)[C@@]1(C)CCC(=O)O` (stereo not given in full), the TGI in [1] is 61 µM; in assay [2], above 100 µM; in [3] it was 98.9 µM; in [4], 40.6 µM; in assay [5], 48.4 µM; in assay [6], above 100 µM. The TGI in [7] is 43 µM; in [8], 41.2 µM; in assay [9], above 100 µM; in assay [10] it was 89.7 µM.
With `S=C1NC2=C(CCOc3c2ccc2ccccc32)C(c2ccc(Cl)cc2)N1` (stereo not given), the GI50 in [1] is 23.8 µM; in assay [2], above 100 µM; in assay [3] it was 41.1 µM; in assay [4], 30.8 µM; in [5] it was 33.5 µM; in [6] it was 43.7 µM. The GI50 in assay [7] was 30.5 µM; in [8], 20 µM; in assay [9] it was 20.2 µM; in assay [10], 41.5 µM. In addition, the TGI was 73.8 µM in assay [1]; above 100 µM in assay [2]; above 100 µM in [3]; above 100 µM in assay [4]; above 100 µM in assay [5]; above 100 µM in [6]. Besides, the total growth inhibition concentration (TGI) in assay [7] was above 100 µM; in assay [8] it was 44.9 µM; in assay [9], 86 µM; in assay [10] it was above 100 µM.
Take `COc1ccc2c(c1)/C(=N/OC(C)=O)c1c-2c(Nc2ccc(/C(C)=N/OC(C)=O)cc2)nc2ccccc12`: the GI50 in assay [1] was 56.8 µM; in assay [2], 71.6 µM; in assay [3], 44.5 µM; in assay [4], 35.7 µM; in assay [5], above 100 µM; in assay [6], 36.5 µM. For the same compound, the GI50 was 70.1 µM in assay [7], 79.4 µM in [8], 82.1 µM in assay [9] and 86.2 µM in assay [10]. In addition, the concentration for total growth inhibition (TGI) in [1], in assay [2], in [3], in [4], in assay [5] and in assay [6] was above 100 µM each time. In addition, the TGI in assay [7], in assay [8], in assay [9] and in assay [10] was above 100 µM each time.
Consider `CCN(Cc1cccc(C)c1)c1ccc(CO)c(Cl)c1`, for which the GI50 in [1] was 15.7 µM; in [2], 11.7 µM; in [3] it was 15.1 µM; in [4], 0.513 µM; in assay [5], 4.12 µM; in assay [6] it was 2.33 µM. Besides, the GI50 in assay [7] was 2.16 µM; in assay [8], 9.25 µM; in assay [9], 14.6 µM; in assay [10] it was 15.7 µM. In addition, the concentration for total growth inhibition (TGI) in assay [1] was found to be 33.4 µM; in assay [2] it was 29.5 µM; in [3], 39.5 µM; in [4] it was 14.5 µM; in assay [5] it was 16.2 µM; in assay [6], 18 µM. The TGI in assay [7] amounted to 13.5 µM; in assay [8], 22 µM; in [9] it was 30 µM; in [10] it was 32.1 µM.

Broadly, the GI50 is the concentration giving 50% growth inhibition. As usually defined, the TGI is the concentration at which net growth stops. Higher therefore signals less potent growth arrest.

The record behind these values is PubChem BioAssay (NCI).
